# Laboratory results from patent US12091653B2, “Strain of Glutamicibacter, originating from insects, capable of efficiently degrading bifenthrin” (Anhui Agricultural University, priority 2023, dated 2024).
# System: E. grisescens larvae
# Experiment: Toxicity testing of 2,4-di-tert-butylphenol in artificial food fed to E. grisescens larvae
# Assay type: in vivo, Ectropis grisescens
# Details: 100 mg/L in sterile artificial food, 48 hours
# Procedure: A stock solution of 2,4-di-tert-butylphenol (purchased from Beijing Solarbio Science & Technology Co., Ltd., HPLC≥99%) was prepared following the preparation method for bifenthrin stock solution. This stock solution was added to sterile artificial food at a final concentration of 100 mg/L. This food was used to feed 30 healthy 4-5 aged E. grisescens larvae. The control group was fed normal sterile artificial food.
smiles,measurement,setting,value
"CC(C)(C)c1ccc(O)c(C(C)(C)C)c1 [2,4-di-tert-butylphenol]",toxicity to E. grisescens larvae,,little to no toxicity
same,survival rate of E. grisescens larvae,control food 93.33%,94.45%
